# Reference: patent US11834413B2, “Antiplatelet drugs and uses thereof” (SHANGHAI CUREGENE PHARMACEUTICAL CO., LTD., priority 2020, dated 2023)
# Experiments:
# [1] = after a loading dose (600 mg); cited from earlier work
# platelet aggregation = experiment: Antiaggregatory action in rats: ex vivo ADP-induced platelet aggregation in PRP, turbidimetric aggregometry; parameters: species or system Male Sprague-Dawley rats; details: rat, oral
# Protocol: Assay 2: Antiaggregatory Action in Rats
# Male Sprague-Dawley rats were used for ex vivo platelet aggregation experiments. After oral administrated with (clopidogrel, exemplary compounds provided herein and vehicle (control)) to rats, blood was collected via jugular vein at 0.5 hour, 1 hour and 2 hour time points, using 3.8% (w/v) sodium citrate solution as an anticoagulant ( 1/9 volume of whole blood). Blood samples with citrate were centrifuged at a low speed of 1000 rmp for 5 min to obtain platelet-rich plasma (PRP). After separation of PRP, the remained blood was further centrifuged at a high speed of 3000 rmp for 10 min to obtain platelet-poor plasma (PPP). The number of platelets in PRP was measured by hematology analyzer (Siemens, ADVIA2120), and adjusted to 4×10^8/mL with PPP.
# Platelet aggregation was determined using turbidimetric aggregometry method by an automatic platelet aggregometer (PRECIL LBY-NJ4). The aggregometer was primarily warmed up to 37° C., and PRP (290 μL) sample was added to the cuvette and set in the automatic platelet aggregometer. After a 5 min pre-incubation, calibrated the aggregometer using PPP to representing 100% aggregation and PRP to representing 0% aggregation. Finally, a volume of […] ADP solution (final concentration 10 μM) was added to PRP sample to initial platelet aggregation. Platelet aggregation was monitored for 5 min and maximum platelet aggregation (%) was reported within the duration. Antiaggregatory action of test compounds was expressed as inhibition (%) which determined by the relation: Inhibition (%)=(maximum platelet aggregation (%) of control−maximum platelet aggregation (%) of test compound)/(maximum platelet aggregation (%) of control)*100
# [2] = after absorption; cited from earlier work
# [3] = Pharmacokinetic in rats: concentration of the thiol active metabolite in plasma; type: in vivo, Male Sprague-Dawley rats; details: for peak concentration of the thiol active metabolite compared with clopidogrel: rat plasma; for release of the active metabolite compared with clopidogrel: rat
# Protocol: Assay 1: Pharmacokinetic in Rats
# Male Sprague-Dawley rats were used to conduct pharmacokinetic experiment.
# Test compounds (clopidogrel and exemplary compounds provided herein) was administrated orally or intravenously to rat under fast condition. Blood samples were collected via jugular vein at 5 min, 15 min, 30 min, 60 min and 120 min time points with EDTA-K2 (anticoagulant), 3′-methoxyphenacyl bromide (MPBr, derivatization reagent) and phenylmethylsulfonyl fluoride (PMSF, stabilizer). Plasma samples were then harvested by centrifuging at 1500 g for 10 min under 2-8° C. and stored at −80° C. after separation. Plasma samples were loaded to a LC-MS/MS instrument after extraction to determine the concentration of the thiol active metabolite.
compound,measurement,setting,value
"COC(=O)[C@H](c1ccccc1Cl)N1CCc2sccc2C1 [clopidogrel, Clopidogrel]",onset of action,[1],2 h
same,inhibition at 10 mg/kg,"platelet aggregation; Platelet, 10 mg/kg, ADP 10 μM, read-out: maximum inhibition of platelet aggregation",~45%
same,time after administration to maximum inhibition of platelet aggregation,platelet aggregation; 10 mg/kg,about 120 minutes
same,fraction hydrolysed by esterases into an inactive carboxylic acid,[2],85%
same,"fraction undergoing two-step oxidation via hepatic cytochrome P450 isoenzymes, mainly CYP2C19",[2],15%
COC(=O)[C@H](c1ccccc1Cl)N1CCC(SCOC(=O)OC(C)C)/C(=C/C(=O)O)C1 (stereo partly drawn) [compound 1a],peak concentration of the thiol active metabolite compared with clopidogrel,"[3]; oral, dose level 10 mg/kg",significantly higher than that for clopidogrel
same,release of the active metabolite compared with clopidogrel,"[3]; oral, dose level 10 mg/kg",faster and more efficient release of the active metabolite than clopidogrel
COC(=O)[C@H](c1ccccc1Cl)N1CCC(SCOC(=O)OC(C)C)/C(=C\C(=O)O)C1 (stereo partly drawn) [compound 1b],peak concentration of the thiol active metabolite compared with clopidogrel,"[3]; oral, dose level 10 mg/kg",significantly higher than that for clopidogrel
same,release of the active metabolite compared with clopidogrel,"[3]; oral, dose level 10 mg/kg",faster and more efficient release of the active metabolite than clopidogrel
same,inhibition at 2 mg/kg,"platelet aggregation; Platelet, 2 mg/kg, ADP 10 μM, read-out: maximum inhibition of platelet aggregation",~45%
same,time after administration to maximum inhibition of platelet aggregation,platelet aggregation; 2 mg/kg,60 min
same,onset of action and potency compared with clopidogrel,platelet aggregation; 2 mg/kg vs clopidogrel 10 mg/kg,much faster onset of action and much higher potency than clopidogrel
CCOC(=O)/C=C1\CN([C@H](C(=O)OC)c2ccccc2Cl)CCC1SCOC(=O)OC(C)C (stereo partly drawn) [compound 2a],peak concentration of the thiol active metabolite compared with clopidogrel,"[3]; oral, dose level 10 mg/kg",significantly higher than that for clopidogrel
same,release of the active metabolite compared with clopidogrel,"[3]; oral, dose level 10 mg/kg",faster and more efficient release of the active metabolite than clopidogrel
COC(=O)OCSC1CCN([C@H](C(=O)OC)c2ccccc2Cl)C/C1=C/C(=O)O (stereo partly drawn) [compound 3],release of the active metabolite compared with clopidogrel,[3]; oral 2 mg/kg and intravenous 1 mg/kg vs clopidogrel oral 10 mg/kg,faster and more efficient release of the active metabolite than clopidogrel
